According to PubChem BioAssay (NCI):
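Assay format: 96-well plates, 48-hour exposure. The concentration for full growth arrest is given as TGI.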

Assays:
Experiment in all cases: inhibition of tumour cell growth, NCI panel, 48 h
NCI-H522 lung = system: NCI-H522 lung
CAKI-1 renal = system: CAKI-1 renal
BT-549 breast = system: BT-549 breast
U251 CNS = system: U251 CNS
HCT-15 colon = system: HCT-15 colon
MDA-MB-435 = system: MDA-MB-435
SNB-75 CNS = system: SNB-75 CNS
SN12C renal = system: SN12C renal
MCF7 breast = system: MCF7 breast
MDA-MB-231 breast = system: MDA-MB-231 breast
SK-OV-3 ovarian = system: SK-OV-3 ovarian
OVCAR-5 ovarian = system: OVCAR-5 ovarian
SR leukemia = system: SR leukemia
SW-620 colon = system: SW-620 colon

Row | SMILES | TGI (NCI-H522 lung) | TGI (CAKI-1 renal) | TGI (BT-549 breast) | TGI (U251 CNS) | TGI (HCT-15 colon) | TGI (MDA-MB-435) | TGI (SNB-75 CNS) | TGI (SN12C renal) | TGI (MCF7 breast) | TGI (MDA-MB-231 breast) | TGI (SK-OV-3 ovarian) | TGI (OVCAR-5 ovarian) | TGI (SR leukemia) | TGI (SW-620 colon)
1 | NCC(=O)C(O)C(O)C(O)CO (centres undefined) | > 100 µM | > 100 µM | > 100 µM | > 100 µM | > 100 µM | > 100 µM | > 100 µM | > 100 µM | > 100 µM | > 100 µM | > 100 µM | > 100 µM | > 100 µM | > 100 µM
2 | CON(C)C(=O)C(Cc1ccccc1)NC(=O)OC(C)(C)C (centres undefined) | – | – | > 100 µM | > 100 µM | > 100 µM | > 100 µM | > 100 µM | > 100 µM | > 100 µM | – | > 100 µM | > 100 µM | > 100 µM | > 100 µM
3 | O=C(NNC(=S)Nc1ccccc1)C12CC3CC(CC(C3)C1)C2 | > 100 µM | > 100 µM | 60.8 µM | > 100 µM | > 100 µM | > 100 µM | > 92.9 µM | > 100 µM | > 100 µM | > 100 µM | > 100 µM | > 100 µM | 22.5 µM | > 100 µM
4 | CCCCCCCCCCCCCCCCOP(=O)(O)OP(=O)(O)OCC1OC(n2ccc(N)nc2=O)CC1O (centres undefined) | > 100 µM | > 100 µM | > 100 µM | > 100 µM | > 100 µM | > 100 µM | > 100 µM | > 100 µM | > 100 µM | > 100 µM | > 100 µM | > 100 µM | – | > 100 µM
5 | CCOC(=O)C1C(=O)CC(C)(O)C(C(=O)OCC)C1c1ccc(N(C)C)cc1 (centres undefined) | > 100 µM | > 100 µM | > 100 µM | > 100 µM | > 100 µM | > 100 µM | > 100 µM | > 100 µM | > 100 µM | > 100 µM | – | > 100 µM | > 100 µM | > 100 µM
6 | O=C(O)c1ccc(Nc2ccnc3cc(Cl)ccc23)cc1O | > 100 µM | > 100 µM | > 100 µM | > 100 µM | > 100 µM | > 100 µM | > 100 µM | > 100 µM | > 100 µM | > 100 µM | > 100 µM | > 100 µM | – | > 100 µM
7 | COC(=O)c1cc(NC2OCC(OC(C)=O)C(OC(C)=O)C2OC(C)=O)nc(SC)c1C(=O)OC (centres undefined) | > 100 µM | > 100 µM | > 100 µM | > 100 µM | > 100 µM | > 100 µM | > 100 µM | > 100 µM | > 100 µM | > 100 µM | – | > 100 µM | > 100 µM | > 100 µM
8 | CN(C(=O)OC(C)(C)C)[C@H]1CCCC[C@H]1N1CCCC1 | > 100 µM | > 100 µM | > 100 µM | > 100 µM | > 100 µM | > 100 µM | – | > 100 µM | > 100 µM | > 100 µM | > 100 µM | > 100 µM | > 100 µM | > 100 µM
